In ChEMBL document CHEMBL4334436 (Medchemcomm, 2019):

How the values were obtained:
[1] = target: D(2) dopamine receptor (Homo sapiens, UniProt P14416); test: Displacement of [3H]spiperone from human dopamine D2S receptor expressed in CHO-K1 cell membrane incubated for 2 hrs by MicroBeta Trilux scintillation counting method; format: cell membranes
[2] = target: D(3) dopamine receptor (Homo sapiens, UniProt P35462); test: Displacement of [3H]spiperone from human dopamine D3 receptor expressed in dihydrofolate reductase deficient CHO-K1 cell membrane incubated for 2 hrs by MicroBeta Trilux scintillation counting method; format: cell membranes
D(3) dopamine receptor, sequence (P35462 whole entry): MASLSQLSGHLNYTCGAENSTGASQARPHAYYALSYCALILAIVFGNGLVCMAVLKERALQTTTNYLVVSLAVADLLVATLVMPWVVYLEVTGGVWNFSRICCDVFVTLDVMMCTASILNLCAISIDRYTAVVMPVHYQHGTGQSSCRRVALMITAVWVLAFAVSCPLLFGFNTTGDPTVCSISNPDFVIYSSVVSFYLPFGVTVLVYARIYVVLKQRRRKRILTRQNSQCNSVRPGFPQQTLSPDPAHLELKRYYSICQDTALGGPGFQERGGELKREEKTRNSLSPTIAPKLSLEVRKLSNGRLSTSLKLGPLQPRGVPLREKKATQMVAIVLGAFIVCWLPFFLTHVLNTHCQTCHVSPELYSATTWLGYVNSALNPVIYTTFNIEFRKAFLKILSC

D(2) dopamine receptor, sequence (P14416 whole entry): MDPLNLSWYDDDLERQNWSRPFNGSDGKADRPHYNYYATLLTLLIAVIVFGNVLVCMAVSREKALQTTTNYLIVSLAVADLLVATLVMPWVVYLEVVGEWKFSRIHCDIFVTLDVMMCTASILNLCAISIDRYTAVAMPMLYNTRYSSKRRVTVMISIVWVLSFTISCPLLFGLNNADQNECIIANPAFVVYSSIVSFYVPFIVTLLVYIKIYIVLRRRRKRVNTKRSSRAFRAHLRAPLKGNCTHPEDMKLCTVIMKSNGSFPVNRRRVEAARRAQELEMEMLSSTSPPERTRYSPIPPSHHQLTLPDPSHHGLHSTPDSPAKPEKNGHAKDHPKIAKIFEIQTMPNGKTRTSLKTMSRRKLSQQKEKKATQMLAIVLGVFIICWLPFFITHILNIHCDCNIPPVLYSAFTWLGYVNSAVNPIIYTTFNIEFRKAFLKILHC

Ki [1] [nM]	Ki [2] [nM]	SMILES
2750	3800	Nc1nc2c(s1)CCN(CCCCN1CCN(c3ncccn3)CC1)CC2
41700	12300	O=C(c1ccccc1)N1CCN(CCN2CCc3ncsc3CC2)CC1
2510	3090	c1cnc(N2CCN(CCCCN3CCc4ncsc4CC3)CC2)nc1
151	240	COc1ccccc1N1CCN(CCN2CCc3ncsc3CC2)CC1
6310	3800	c1nc2c(s1)CCN(CCCCN1CCc3ncsc3CC1)CC2
64.6	166	COc1ccccc1N1CCN(CCCN2CCc3ncsc3CC2)CC1
85.1	309	COc1ccccc1N1CCN(CCCCN2CCc3ncsc3CC2)CC1

The remaining lines, values behind:

SMILES	Ki [1] [nM]	Ki [2] [nM]
Clc1cccc(N2CCN(CCCCN3CCc4ncsc4CC3)CC2)c1Cl	18.2	28.2
COc1ccccc1N1CCN(CCCCOc2ccc3scnc3c2)CC1	3.24	8.51
O=C(NCCCCN1CCc2ncsc2CC1)C12CC3CC(CC(C3)C1)C2	5500	447
COc1ccccc1N1CCN(CCCCOc2ccc3sc(N)nc3c2)CC1	2.82	3.02
COc1ccccc1N1CCN(CCCN2CCCc3ncsc3C2)CC1	178	257
Nc1nc2c(s1)CCN(CCCCN1CCN(c3cccc(Cl)c3Cl)CC1)CC2	22.4	25.7
